Assay [1] concerns the target Fructose-bisphosphate aldolase (Mycobacterium tuberculosis, UniProt P9WQA3). As to the kind of experiment: Fluorescence-based biochemical high throughput dose response assay for inhibitors of the fructose-bisphosphate aldolase (FBA) of M. tuberculosis. The class given is functional.
The nature of assay [2]: miR-122 activators in hepatoma reporter cells, dose response, cell-based, Huh7 psiCHECK-miR122, Renilla luciferase, cherry-picked (AID 651956).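 Further: huh7 hepatoma cells stably carrying a psiCHECK-2 miR-122 sensor plasmid; renilla luciferase signal reporting endogenous miR-122 activity after 48 h compound exposure.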 The class given is functional.
Assay [3] can be described thus: HEK293T cytotoxicity, dose response, cytotoxicity control for miR-122 modulator project, cell-based, inhibitor set, cherry-pick, set 2 (AID 720697). Type of assay: functional.
Assay [4] is described as follows: HEK293T cytotoxicity, dose response, cytotoxicity control for miR-122 modulator project, cell-based, activator set, cherry-pick (AID 720690).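 Further: HEK293T human cells scored for general mammalian cytotoxicity.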 The class given is functional.
Assay [5] relates to Streptococcus sp. 'group A'. As to the kind of experiment: growth inhibition of control SK(-) GAS strain, dose response, counter-screen for streptokinase expression inhibitor project, luminescence, kanamycin, BacTiterGlo, confirmation (AID 1900). The class given is functional, organism-based.
For assay [6], the target named is T1, Streptokinase A (Streptococcus pyogenes serotype M1, UniProt P10520).
T1 sequence (P10520 whole entry): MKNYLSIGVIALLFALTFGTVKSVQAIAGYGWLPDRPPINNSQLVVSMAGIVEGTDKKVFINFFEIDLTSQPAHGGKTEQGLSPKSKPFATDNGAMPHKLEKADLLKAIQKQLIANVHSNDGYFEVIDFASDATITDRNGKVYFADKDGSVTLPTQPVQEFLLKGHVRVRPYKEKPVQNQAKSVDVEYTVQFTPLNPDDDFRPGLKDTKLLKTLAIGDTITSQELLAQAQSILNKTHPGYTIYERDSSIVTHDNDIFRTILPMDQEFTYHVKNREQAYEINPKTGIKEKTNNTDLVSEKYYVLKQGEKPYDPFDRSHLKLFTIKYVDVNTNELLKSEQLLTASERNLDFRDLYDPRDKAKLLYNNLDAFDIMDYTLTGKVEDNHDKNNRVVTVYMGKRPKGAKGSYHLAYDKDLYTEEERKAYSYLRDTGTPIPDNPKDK
Put plainly: S. pyogenes streptokinase expression inhibitors, potency, dose response, plasminogen activation absorbance, OD405 (AID 1914).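 Further: secreted streptokinase activity via plasminogen activation per viability signal from cell pellet.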 Type of assay: functional, Streptococcus pyogenes M1 GAS.

In assay [7] the test system is Streptococcus. Put plainly: Group A Streptococcus viability loss, dose response, counter-screen for streptokinase expression inhibitor project, luminescence, BacTiterGlo (AID 1915).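 Further: potency for reduction of bacterial viability or growth.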 Type of assay: functional, organism-based. On the technique in general: A counterscreen serves to expose hits that act by an unwanted route or on another target.
Assay [8] concerns the target Disintegrin and metalloproteinase domain-containing protein 17 (Homo sapiens, UniProt P78536). Put plainly: exosite inhibitors of ADAM17, dose response, biochemical (AID 743260).
In assay [9] the test system is Vero. As to the kind of experiment: Vero cell toxicity, dose response, cytotoxicity control, plate reader, cherry-pick samples (AID 687020). The class given is functional, cell-based. The conditions noted are these: Chlorocebus sabaeus.
Assay [10] has as its target Protein S100-A4 (Homo sapiens, UniProt P26447). As to the kind of experiment: S100A4-myosin IIA binding inhibitor potency, dose response, biochemical, fluorescence polarization, cherry-picked hits (AID 687001). Type of assay: functional. (In general: Fluorescence polarisation rises when a labelled molecule tumbles more slowly, as on binding a larger partner.)
Assay [11] can be described thus: Luminescence Cell-Based Dose Retest to Confirm Inhibitors of Cancer Stem Cells. [Related pubchem assays (depositor defined):AID2717, AID2721]. The class given is functional. The conditions noted are these: Homo sapiens.
The subject of assay [12] is Cryptococcus neoformans. Put plainly: PubChem AID 686997. Type of assay: functional, organism-based.
In assay [13] the target is Beta-lactamase (Salmonella choleraesuis (strain SC-B67), UniProt Q5J463). As to the kind of experiment: Epi-absorbance-based counterscreen for selective VIM-2 inhibitors: dose response biochemical high throughput screening assay to identify inhibitors of TEM-1 serine-beta-lactamase.
Sequence of Beta-lactamase (Salmonella choleraesuis (strain SC-B67), UniProt Q5J463) (Q5J463 whole entry): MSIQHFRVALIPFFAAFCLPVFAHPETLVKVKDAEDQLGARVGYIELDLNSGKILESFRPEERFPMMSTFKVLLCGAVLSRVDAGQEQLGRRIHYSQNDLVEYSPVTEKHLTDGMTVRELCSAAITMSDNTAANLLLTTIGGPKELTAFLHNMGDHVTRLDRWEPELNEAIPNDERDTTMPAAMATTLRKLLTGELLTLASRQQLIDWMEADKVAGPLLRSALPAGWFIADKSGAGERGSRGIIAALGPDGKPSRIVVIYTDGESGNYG
For assay [14], the target named is T2, Beta-lactamase (Pseudomonas aeruginosa, UniProt Q79MP6). Put plainly: IMP-1 metallo-beta-lactamase inhibitors, dose response, selectivity assay for VIM-2 inhibitor project, biochemical, epi-absorbance (AID 1920).
T2 sequence (Q79MP6 whole entry): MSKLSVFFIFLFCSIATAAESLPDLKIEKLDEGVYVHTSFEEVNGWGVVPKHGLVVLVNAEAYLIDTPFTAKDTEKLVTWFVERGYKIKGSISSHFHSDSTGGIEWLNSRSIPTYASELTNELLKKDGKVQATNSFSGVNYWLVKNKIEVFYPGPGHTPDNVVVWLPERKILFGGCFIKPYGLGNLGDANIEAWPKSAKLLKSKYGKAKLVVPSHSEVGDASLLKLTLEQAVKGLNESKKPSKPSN
Assay [15] concerns the target T2, Beta-lactamase. As to the kind of experiment: […] counterscreen for selective VIM-2 inhibitors: dose response biochemical high throughput screening assay to identify inhibitors of IMP-1 metallo-beta-lactamase.
For assay [16], the target named is FAD-linked sulfhydryl oxidase ALR (Homo sapiens, UniProt P55789). Put plainly: inhibitors of human ALR sulfhydryl oxidase, dose response, biochemical, H2O2 detection, luminescence, cherry-pick (AID 493248).
Sequence of FAD-linked sulfhydryl oxidase ALR (P55789 whole entry): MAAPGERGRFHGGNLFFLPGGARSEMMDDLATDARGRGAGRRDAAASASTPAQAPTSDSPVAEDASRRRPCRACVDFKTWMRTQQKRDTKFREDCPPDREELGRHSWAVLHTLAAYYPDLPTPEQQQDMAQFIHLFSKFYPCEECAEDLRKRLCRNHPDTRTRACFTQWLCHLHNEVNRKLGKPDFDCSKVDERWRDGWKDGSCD
A short description of assay [17]: inhibitors of intracellular T. cruzi replication, confirmation, NIH3T3 host cells, beta-gal luminescence (AID 2044).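 Further: intracellular parasites grown in NIH/3T3 mouse fibroblasts as host cells; luminescent beta-galactosidase reporter signal from transgenic T. cruzi replicating inside host cells; inhibitors lower the luminescence signal.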 The class given is functional, cell-based.
A short description of assay [18]: cytotoxicity toward NIH3T3 fibroblasts, dose response, counter-screen, cell-based, ATP luminescence, mouse fibroblasts (AID 2010).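 Further: cells exposed to compound for about 90 hours before reading.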 The class given is functional.
Assay [19] concerns the target Botulinum neurotoxin type F (Clostridium botulinum, UniProt P30996). Put plainly: High-throughput multiplex microsphere dose response for inhibitors of toxin protease, specifically Botulinum neurotoxin light chain F protease, compounds from Cherry Pick 02. Type of assay: functional. The conditions noted are these: read-out: EC50_MICROM.
Assay [20] addresses T3, Long-chain-fatty-acid--AMP ligase FadD28 (Mycobacterium tuberculosis, UniProt P9WQ59).
T3 sequence (P9WQ59 whole entry): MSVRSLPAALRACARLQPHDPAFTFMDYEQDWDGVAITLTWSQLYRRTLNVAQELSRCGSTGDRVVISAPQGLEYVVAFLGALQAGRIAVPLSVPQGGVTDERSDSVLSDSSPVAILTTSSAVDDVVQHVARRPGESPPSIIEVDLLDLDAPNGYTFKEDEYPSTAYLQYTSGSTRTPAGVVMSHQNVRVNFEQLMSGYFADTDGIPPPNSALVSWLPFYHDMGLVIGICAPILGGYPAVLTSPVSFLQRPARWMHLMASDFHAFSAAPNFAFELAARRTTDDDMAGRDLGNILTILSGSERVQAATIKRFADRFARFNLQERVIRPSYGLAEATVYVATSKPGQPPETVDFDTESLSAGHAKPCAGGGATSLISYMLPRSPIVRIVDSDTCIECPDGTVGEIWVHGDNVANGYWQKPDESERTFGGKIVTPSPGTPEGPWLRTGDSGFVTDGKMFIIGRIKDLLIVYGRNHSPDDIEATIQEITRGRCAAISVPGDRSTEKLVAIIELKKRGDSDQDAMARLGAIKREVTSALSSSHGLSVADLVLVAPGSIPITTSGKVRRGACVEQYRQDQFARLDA
Put plainly: Fluorescence polarization aasay to screen for inhibitors that compete for the binding of FadD28 to a bisubstrate Measured in Biochemical System Using Plate Reader - 2147-01_Inhibitor_Dose_CherryPick_Activity. The class given is functional, Mycobacterium tuberculosis H37Rv.

Calls of active or inactive are those of the source.

Sequence of Protein S100-A4 (P26447 whole entry): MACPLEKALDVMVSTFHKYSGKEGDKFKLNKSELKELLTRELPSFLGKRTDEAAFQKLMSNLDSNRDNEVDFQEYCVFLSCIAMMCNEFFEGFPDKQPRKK
Sequence of Botulinum neurotoxin type F (P30996 1-436 limits assumed): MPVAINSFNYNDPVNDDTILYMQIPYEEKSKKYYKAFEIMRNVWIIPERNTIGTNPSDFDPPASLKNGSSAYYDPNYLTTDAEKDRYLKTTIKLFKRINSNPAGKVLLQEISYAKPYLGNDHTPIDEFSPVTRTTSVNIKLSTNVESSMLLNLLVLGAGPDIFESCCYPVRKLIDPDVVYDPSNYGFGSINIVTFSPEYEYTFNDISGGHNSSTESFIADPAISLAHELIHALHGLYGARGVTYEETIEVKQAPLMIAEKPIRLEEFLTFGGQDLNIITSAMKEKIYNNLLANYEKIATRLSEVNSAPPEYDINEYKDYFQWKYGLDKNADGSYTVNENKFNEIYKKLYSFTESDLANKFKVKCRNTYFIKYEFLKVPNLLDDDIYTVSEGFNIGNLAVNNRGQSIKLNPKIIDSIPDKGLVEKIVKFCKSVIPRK
Sequence of Fructose-bisphosphate aldolase (P9WQA3 whole entry): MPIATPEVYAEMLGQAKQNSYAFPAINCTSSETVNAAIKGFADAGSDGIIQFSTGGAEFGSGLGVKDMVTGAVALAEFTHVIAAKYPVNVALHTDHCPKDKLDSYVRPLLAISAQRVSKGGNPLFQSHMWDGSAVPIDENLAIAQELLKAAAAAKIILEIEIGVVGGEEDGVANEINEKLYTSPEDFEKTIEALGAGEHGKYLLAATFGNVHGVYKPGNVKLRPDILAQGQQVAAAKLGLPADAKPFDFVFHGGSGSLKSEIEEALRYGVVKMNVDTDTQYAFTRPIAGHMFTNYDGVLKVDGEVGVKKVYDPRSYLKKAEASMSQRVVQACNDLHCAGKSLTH
Sequence of Disintegrin and metalloproteinase domain-containing protein 17 (P78536 whole entry, the tested form may be a part): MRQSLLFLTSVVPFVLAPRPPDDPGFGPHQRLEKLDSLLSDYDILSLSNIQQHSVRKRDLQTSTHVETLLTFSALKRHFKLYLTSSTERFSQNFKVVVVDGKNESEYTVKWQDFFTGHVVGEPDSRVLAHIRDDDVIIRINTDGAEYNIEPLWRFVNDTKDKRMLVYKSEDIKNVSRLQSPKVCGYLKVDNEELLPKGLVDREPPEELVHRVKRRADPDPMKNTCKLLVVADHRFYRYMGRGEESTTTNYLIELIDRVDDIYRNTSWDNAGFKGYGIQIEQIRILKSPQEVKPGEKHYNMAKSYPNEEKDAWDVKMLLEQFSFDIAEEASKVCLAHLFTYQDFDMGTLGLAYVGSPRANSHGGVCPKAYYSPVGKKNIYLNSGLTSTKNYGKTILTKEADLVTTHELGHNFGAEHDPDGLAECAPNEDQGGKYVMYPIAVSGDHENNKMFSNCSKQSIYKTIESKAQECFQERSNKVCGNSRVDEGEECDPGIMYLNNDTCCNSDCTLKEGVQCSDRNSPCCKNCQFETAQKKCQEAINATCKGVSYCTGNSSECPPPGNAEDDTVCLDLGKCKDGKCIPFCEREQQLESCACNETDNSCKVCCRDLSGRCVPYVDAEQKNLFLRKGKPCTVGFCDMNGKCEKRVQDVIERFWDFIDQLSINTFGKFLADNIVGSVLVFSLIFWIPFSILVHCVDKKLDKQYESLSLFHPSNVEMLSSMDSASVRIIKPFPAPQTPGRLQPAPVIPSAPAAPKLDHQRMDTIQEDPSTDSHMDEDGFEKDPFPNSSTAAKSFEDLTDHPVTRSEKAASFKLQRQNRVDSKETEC

A word on the IC50: it is the concentration at which inhibition is half-maximal. For `Cc1ccc2c(C)cc[n+](CCCS(=O)(=O)[O-])c2c1`, in assay [1], the IC50 was 5.92 µM (active).

The AC50 is the concentration giving half of the maximal activity seen. As for `C[C@@H]1CN([C@H](C)CO)C(=O)c2cc(NC(=O)Nc3cccc4ccccc34)ccc2O[C@@H](C)CCCCO[C@@H]1CN(C)Cc1ccc2c(c1)OCO2`, the half-maximal activity concentration (AC50) in [2] is 9.62 µM (active); in assay [3], < 0.195 µM (active); in assay [4], 22 µM (active).

For the molecule `Cc1cc(SCC(=O)c2ccc(O)c(O)c2)n2nc(C)c(-c3ccccc3)c2n1`, the EC50 in assay [5] was 7.32 µM (active); in assay [6], > 150 µM (not active); in assay [7], 13.9 µM (active). Also, the IC50 in assay [8] was > 69.5 µM (inactive).

Take `CCCCNC(=O)O[C@H]1C[C@@H]2CCN3C(=O)CCC[C@H]([C@H]1Cc1ccccc1)[C@H]23`: the AC50 in assay [9] was 38.6 µM (active).

As to `COc1cccc2c1C(=O)c1c(O)c3c(c(O)c1C2=O)CC(O)(C(C)=O)CC3OC1CC(O)C(O)C(C)O1` (stereo not given), in assay [10], the half-maximal activity concentration (AC50) is 0.395 µM (active).

As to `COc1ccc(C(=O)NC(=S)Nc2ccccc2N2CCCCC2)cc1[N+](=O)[O-]`, the values for the AC50 in assay [11] and in assay [12] were 0.549 µM (active) and > 70 µM (inactive), respectively.

For `COc1cccc(-n2c(S)nnc2CNC(=O)OC(C)(C)C)c1`, the IC50 in assay [13], in [14] and in assay [15] was > 59.6 µM (inactive) each time. Further, in assay [16], the half-maximal activity concentration (AC50) was 12.1 µM (active).

In the case of `CCc1cccc2c(C(=O)COC(=O)c3ccc(O)cc3)c[nH]c12`, the EC50 in assay [17] is 2.89 µM (active); in [18], 9.37 µM (active); in [19], > 20 µM (inactive). In addition, the AC50 in assay [20] was 26.2 µM (active).

The values are drawn from ChEMBL document CHEMBL1201862, “PubChem BioAssay data set” (2004).
